Source: patent US20240182475A1 (Université de Lausanne, priority 2021, published 2024)
One block for each compound: values may come before it.

Legend:
MOVAS cells [1] = assay: Cytotoxicity assay, LDH release; assay type: cell-based, mouse
Experimental: A) Alizarin red staining of MOVAS cells stimulated with CPP for 24 h in DMEM+10% FBS in presence of different concentrations of compound 22401. […] The background (Alizarin red staining obtained with cells in the absence of CPP) was subtracted from all values. B) Percentage of cytotoxicity, as measured by LDH release, in MOVAS cells in the same conditions as A). Statistical analysis was determined using one-way ANOVA with *p<0.05, **p<0.01, ***p<0.001.
Measurement of lactate dehydrogenase (LDH) as a means of cytotoxicity assay was performed with using CytoTox-ONE Homogeneous Membrane Integrity Assay (Promega) according to the manufacturer's instructions. Values were calculated as percentage of cytotoxicity using the following formula: [(value in sample)−(background)]/[(value in Triton X-100-treated sample)−(background)]×100.

MOVAS cells [2] = assay: MOVAS cell calcification assay (Alizarin red); assay type: cell-based, mouse; settings: Mus musculus, MOVAS, read-out: Calcification assay Max calcification inhibition (%) at the indicated dose of compound
Experimental: A) Alizarin red staining of MOVAS cells stimulated with sCPP for 24 h in DMEM+10% FBS and treated or not with 50 uM of compounds. […] Statistical analysis was determined using one-way ANOVA with ***p<0.001. C) Percentage of cytotoxicity (LDH %) in MOVAS treated or not with compounds for 24 h. D) MOVAS cells were seeded onto half-area 96-well plate and incubated overnight. Then C5 or C6 at 50 uM or vehicle (DMSO), L-cysteine at 10 mM, PLP at 5 uM and the H2S sensitive fluorescent probe AzMC at 10 μM were added. The fluorescence was immediately measured in kinetic mode for 2 h at 37° C. with SpectraMax M5 reader, with excitation and emission wavelengths of 365 nm and 450 nm, respectively.
A) Alizarin red staining of Movas cells stimulated with sCPP for 24 h in DMEM+10% FBS and treated or not with 50 uM of Z20. […] C) Percentage of cytotoxicity (LDH %) in murine chondrocytes treated or not with Z20 for 24 h. Statistical analysis was determined using one-way ANOVA with ***p<0.001.
Alizarin red staining of MOVAS cells stimulated with sCPP for 24 h in DMEM+10% FBS and treated or not with different concentrations of compounds (A: C6) and (B: Z20). The graphs show Alizarin red absorbance at 570-630 nm. Statistical analysis was determined using one-way ANOVA with *p<0.05, **p<0.01, ***p<0.001.
CPP were generated by preparing 20 ml DMEM containing 10% FBS, 1 mmol/L CaCl2, 3.5 mmol/L inorganic phosphate (1.36 mmol/L NaH2PO4 and 2.14 mmol/L Na2HPO4) (Aghagolzadeh et al. Atherosclerosis, 2016). After 7 days incubation at 37° C., the suspension was centrifuged at 25000 g for 2 h at 4° C., and the pellet containing CPP was resuspended in 1 ml DMEM and stored at −20° C. until further use.
Mouse vascular smooth muscle cell line (MOVAS) cells were cultured according to the manufacturer's guidelines in DMEM culture medium supplemented with 10% FBS. Cells were cultured at 37° C. in a humidified atmosphere with 5% CO2. All cell culture experiments in 96-well plates were performed in triplicates and were repeated independently two times.
For calcification experiments, cells were seeded in 96-well plates at a density of 50,000 cells/well and left to attach for 18 h. Calcification of cell monolayers was induced by CPP (equivalent to 50 μg Ca/mL) for 24 h at 37° C., 5% CO2 in presence of various concentrations of compounds (all in final 0.1% DMSO), or of 0.1% DMSO as a control, to reach a final volume of 200 μl/well. Calcium deposition was assessed by 0.5% w/v Alizarin Red staining (pH 4.2). Briefly, after PBS washing, methanol fixation for 10 min at 4° C., and milli-Q water washing, cells were incubated for 60 min with 200 μL Alizarin Red solution and then washed four times with milli-Q water. Quantification was performed after crystal dissolution with cetylpyridinium chloride (10%) for 18 h. The absorbance was measured at 570 and 630 nm using the Spectramax M5e reader (Molecular Devices). The background (alizarin red staining obtained with cells in the absence of CPP) was subtracted from all values.

recombinant human CSE = recombinant human CSE (Homo sapiens, UniProt P32929); assay: CSE activity (AzMC probe assay), H2S production by recombinant human CSE; assay type: biochemical; settings: for CSE activity (AZMC probe assay) % of activation: (RFU compound max - RFU compound 0/RFU CSE 2 ug - RFU compound 0)*100; for EC50: EC50 calculated by the four-parameter logistic model
Experimental: The activity of recombinant human CSE (rCSE) was tested in the presence of C5, compound 8 (50 uM), Z20 compound 13 (50 uM) or vehicle (DMSO). Briefly, compounds were added in reaction buffer (50 mM Tris-HCl, pH 8) containing 2 μg of rCSE, 10 mM CSE substrate L-cysteine, 5 uM pyridoxal 5′-phosphate (PLP). After addition of 10 μM of the H2S sensitive fluorescent probe 7-azido-4-methylcoumarin (AzMC) in a total volume of 100 μl, fluorescence was immediately measured in kinetic mode for 2 h at 37° C. with SpectraMax M5 reader, with excitation and emission wavelengths of 365 nm and 450 nm, respectively. Statistical analysis was determined using simple linear regression with p<0.0001 for C5 vs. vehicle and p<0.0002 for Z20 vs. vehicle.
Recombinant human CSE (1 μg/well) was incubated with various concentrations of compounds (all in final 0.1% DMSO), or with 0.1% DMSO as a control, in 10 mM sodium phosphate buffer pH 8.2. Next, 10 mM L-cysteine and 1 mM PLP and 10 μM of the probe AzMC were then added to reach 100 μL total volume. Fluorescence was measured for 3 h at 37° C. with excitation and emission wavelengths of 365 nm and 450 nm, respectively, in a 96-well half area black plate with transparent bottom.
Dose-response curve of each compound was performed, using triplicate wells for each tested doses. The background (10 mM sodium phosphate buffer with L-cysteine, PLP and AzMC) was subtracted from all values. Each mean value was converted to percent activity (0% defined as the smallest mean in each data set, 100% defined as the highest mean in each data set). The data were normalized using the four parameter logistic model (4PL) equation to calculate EC50 using GraphPad Prism.

Sequence of recombinant human CSE (P32929 whole entry): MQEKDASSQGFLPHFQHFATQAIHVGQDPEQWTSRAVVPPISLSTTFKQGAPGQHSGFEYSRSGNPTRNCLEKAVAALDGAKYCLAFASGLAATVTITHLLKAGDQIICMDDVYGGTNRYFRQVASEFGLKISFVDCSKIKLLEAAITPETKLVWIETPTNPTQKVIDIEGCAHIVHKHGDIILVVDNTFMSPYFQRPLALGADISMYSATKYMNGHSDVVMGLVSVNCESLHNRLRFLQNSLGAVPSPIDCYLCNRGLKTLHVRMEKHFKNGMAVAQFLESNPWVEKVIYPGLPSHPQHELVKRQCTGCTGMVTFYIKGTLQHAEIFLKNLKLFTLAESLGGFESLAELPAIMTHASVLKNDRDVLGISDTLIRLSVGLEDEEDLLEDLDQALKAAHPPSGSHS

Structure (SMILES): CCn1cnc2c(Nc3cnn(CC4CCCO4)c3)ncnc21 (stereo not shown) [Compound 19, 9-ethyl-N-(1-((tetrahydrofuran-2-yl)methyl)-1H-pyrazol-4-yl)-9H-purin-6-amine]
Cytotoxicity assay LDH release (% of cytotoxicity) (MOVAS cells [1]; at 50 uM): 15% at | inhibition at 50 µM (MOVAS cells [2]; at 50 uM): 48% | CSE activity (AZMC probe assay) % of activation (recombinant human CSE): 28% | EC50 (recombinant human CSE): 0.0418 µM

Structure (SMILES): Cn1cc(Nc2ncccn2)cn1 [Compound 26, N-(1-methyl-1H-pyrazol-4-yl)pyrimidin-2-amine]
Cytotoxicity assay LDH release (% of cytotoxicity) (MOVAS cells [1]; no dose given): 20% | CSE activity (AZMC probe assay) % of activation (recombinant human CSE): 57% | EC50 (recombinant human CSE): 0.0385 µM

Structure (SMILES): CCn1cnc2c(Nc3cnn(CC4CCCCC4)c3)ncnc21 [Compound 30, N-(1-(cyclohexylmethyl)-1H-pyrazol-4-yl)-9-ethyl-9H-purin-6-amine]
Cytotoxicity assay LDH release (% of cytotoxicity) (MOVAS cells [1]; at 20 uM): 5% at | inhibition at 20 µM (MOVAS cells [2]): 80% | CSE activity (AZMC probe assay) % of activation (recombinant human CSE): 39% | EC50 (recombinant human CSE): 0.0318 µM

Structure (SMILES): c1cnc(Nc2cnn(CC3CCCCC3)c2)nc1 [Compound 31, N-(1-(cyclohexylmethyl)-1H-pyrazol-4-yl)pyrimidin-2-amine]
Cytotoxicity assay LDH release (% of cytotoxicity) (MOVAS cells [1]; no dose given): 15% | CSE activity (AZMC probe assay) % of activation (recombinant human CSE): 61% | EC50 (recombinant human CSE): 0.0674 µM

Structure (SMILES): c1cnc(Nc2cnn(CC3CCCO3)c2)nc1 (stereo not shown) [Compound 32]
Cytotoxicity assay LDH release (% of cytotoxicity) (MOVAS cells [1]; at 2 uM): 15% at | inhibition at 2 µM (MOVAS cells [2]; at 2 uM): 36% | CSE activity (AZMC probe assay) % of activation (recombinant human CSE): 76% | EC50 (recombinant human CSE): 0.0352 µM

Structure (SMILES): CCn1cnc2c(Nc3cnn(Cc4ccccn4)c3)ncnc21 [Compound 34, 9-ethyl-N-(1-(pyridin-2-ylmethyl)-1H-pyrazol-4-yl)-9H-purin-6-amine]
Cytotoxicity assay LDH release (% of cytotoxicity) (MOVAS cells [1]; no dose given): 20% | CSE activity (AZMC probe assay) % of activation (recombinant human CSE): 35% | EC50 (recombinant human CSE): 0.0317 µM

Structure (SMILES): O=[N+]([O-])c1ccc(Nc2cnn(CC3CCCO3)c2)cc1 (stereo not shown) [Compound 35, N-(4-nitrophenyl)-1-((tetrahydrofuran-2-yl)methyl)-1H-pyrazol-4-amine]
Cytotoxicity assay LDH release (% of cytotoxicity) (MOVAS cells [1]; at 0.3 uM): 4% at | inhibition at 0.3 µM (MOVAS cells [2]): 23% | CSE activity (AZMC probe assay) % of activation (recombinant human CSE): 109% | EC50 (recombinant human CSE): 0.043 µM

Structure (SMILES): O=C(Nc1cnn(CC2CCCO2)c1)c1cccc(F)c1 (stereo not shown) [Compound 39, 3-fluoro-N-(1-((tetrahydrofuran-2-yl)methyl)-1H-pyrazol-4-yl)benzamide]
Cytotoxicity assay LDH release (% of cytotoxicity) (MOVAS cells [1]; at 20 uM): 8% at | inhibition at 20 µM (MOVAS cells [2]): 30% | CSE activity (AZMC probe assay) % of activation (recombinant human CSE): 33% | EC50 (recombinant human CSE): 0.137 µM

Structure (SMILES): N#Cc1cccc(C(=O)Nc2cnn(CC3CCCO3)c2)c1 (stereo not shown) [Compound 45, 3-cyano-N-(1-((tetrahydrofuran-2-yl)methyl)-1H-pyrazol-4-yl)benzamide]
Cytotoxicity assay LDH release (% of cytotoxicity) (MOVAS cells [1]; at 5 uM): 12% at | inhibition at 5 µM (MOVAS cells [2]; at 5 uM): 57% | CSE activity (AZMC probe assay) % of activation (recombinant human CSE): 59% | EC50 (recombinant human CSE): 0.0396 µM

Stronger by EC50 (recombinant human CSE), values ahead:

CSE activity (AZMC probe assay) % of activation (recombinant human CSE): 46% | EC50 (recombinant human CSE): 0.021 µM
Structure (SMILES): c1cc(Nc2cnn(CC3CCCO3)c2)ncn1 (stereo not shown) [Compound 20, N-(1-((tetrahydrofuran-2-yl)methyl)-1H-pyrazol-4-yl)pyrimidin-4-amine]
Cytotoxicity assay LDH release (% of cytotoxicity) (MOVAS cells [1]; at 20 uM): 16% at | inhibition at 20 µM (MOVAS cells [2]): 23%

CSE activity (AZMC probe assay) % of activation (recombinant human CSE): 56% | EC50 (recombinant human CSE): 0.026 µM
Structure (SMILES): CCn1cnc2c(Nc3cnn(C)c3)ncnc21 [Compound 25, 9-ethyl-N-(1-methyl-1H-pyrazol-4-yl)-9H-purin-6-amine]
Cytotoxicity assay LDH release (% of cytotoxicity) (MOVAS cells [1]; no dose given): 20%

CSE activity (AZMC probe assay) % of activation (recombinant human CSE): 59% | EC50 (recombinant human CSE): 0.0197 µM
Structure (SMILES): CCCn1cc(Nc2ncnc3c2ncn3CC)cn1 [Compound 33, 9-ethyl-N-(1-propyl-1H-pyrazol-4-yl)-9H-purin-6-amine]
Cytotoxicity assay LDH release (% of cytotoxicity) (MOVAS cells [1]; no dose given): 20%

CSE activity (AZMC probe assay) % of activation (recombinant human CSE): 62% | EC50 (recombinant human CSE): 0.0158 µM
Structure (SMILES): O=C(Nc1cnn(CC2CCCO2)c1)c1ccccc1 (stereo not shown) [Compound 36, N-(1-((tetrahydrofuran-2-yl)methyl)-1H-pyrazol-4-yl)benzamide]
Cytotoxicity assay LDH release (% of cytotoxicity) (MOVAS cells [1]; at 0.07 uM): 12% at | inhibition at 0.07 µM (MOVAS cells [2]; at 0.07 uM): 42%

CSE activity (AZMC probe assay) % of activation (recombinant human CSE): 65% | EC50 (recombinant human CSE): 0.0044 µM
Structure (SMILES): O=C(Nc1cnn(CC2CCCO2)c1)c1ccc2ccccc2c1 (stereo not shown) [Compound 40, N-(1-((tetrahydrofuran-2-yl)methyl)-1H-pyrazol-4-yl)-2-naphthamide]
Cytotoxicity assay LDH release (% of cytotoxicity) (MOVAS cells [1]; at 0.3 uM): 10% at | inhibition at 0.3 µM (MOVAS cells [2]): 56%

CSE activity (AZMC probe assay) % of activation (recombinant human CSE): 73% | EC50 (recombinant human CSE): 0.029 µM
Structure (SMILES): O=C(Nc1cnn(CC2CCCO2)c1)c1cccc2[nH]ccc12 (stereo not shown) [Compound 44, N-(1-((tetrahydrofuran-2-yl)methyl)-1H-pyrazol-4-yl)-1H-indole-4-carboxamide]
Cytotoxicity assay LDH release (% of cytotoxicity) (MOVAS cells [1]; at 0.3 uM): 12% at | inhibition at 0.3 µM (MOVAS cells [2]): 37%
